How the values were obtained:
Assay in all cases: relative viability vs DMSO control (72 h) (fraction); higher = more viable cells
G401 = tested on: G401
Outline: (§1)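 Sarcoma cell lines were seeded in 384-well plates at densities chosen for 80–90% confluence, then 24 h later given 2.5 µl of serially diluted compound drawn from source plates spanning 10 mM to 0.0002 mM. They were held 72 h at 37 °C, 5% CO2, with 0.1% DMSO vehicle and a 5 µM positive control included. Relative viability was read with ATPLite as percent growth and averaged over up to triplicate wells. Rescaling placed full at 1 and none at 0.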

A204 = tested on: A204
Outline: as §1

SYO-1 = tested on: SYO-1
Outline: as §1

SW872 = tested on: SW872
Outline: as §1

KHOS-NP = tested on: KHOS-NP
Outline: as §1

MES-SA = tested on: MES-SA
Outline: as §1

HT1080 = tested on: HT1080
Outline: as §1

SK-LMS-1 = tested on: SK-LMS-1
Outline: as §1

HS729 = tested on: HS729
Outline: as §1

SW684 = tested on: SW684
Outline: as §1

SW1353 = tested on: SW1353
Outline: as §1

VA-ES-BJ = tested on: VA-ES-BJ
Outline: as §1

CS(=O)(=O)CCNCc1ccc(-c2ccc3ncnc(Nc4ccc(OCc5cccc(F)c5)c(Cl)c4)c3c2)o1 [Lapatinib]
Settings	relative viability
A204, 0.00017 µM	1.06
A204, 0.00051 µM	1.07
A204, 0.00152 µM	1.06
A204, 0.00457 µM	1.07
A204, 0.01372 µM	1.06
A204, 0.04115 µM	1.08
A204, 0.1235 µM	1.07
A204, 0.3704 µM	1.09
A204, 1.111 µM	1.05
A204, 3.333 µM	0.701
A204, 10 µM	0.0212
G401, 0.00017 µM	1.01
G401, 0.00051 µM	1.01
G401, 0.00152 µM	1.01
G401, 0.00457 µM	1.01
G401, 0.01372 µM	1.02
G401, 0.04115 µM	1.04
G401, 0.1235 µM	1.01
G401, 0.3704 µM	0.966
G401, 1.111 µM	1.02
G401, 3.333 µM	1.01
G401, 10 µM	0.789
HS729, 0.00017 µM	0.93
HS729, 0.00051 µM	0.935
HS729, 0.00152 µM	0.873
HS729, 0.00457 µM	0.878
HS729, 0.01372 µM	0.939
HS729, 0.04115 µM	0.921
HS729, 0.1235 µM	0.93
HS729, 0.3704 µM	0.887
HS729, 1.111 µM	0.879
HS729, 3.333 µM	0.794
HS729, 10 µM	0.134
HT1080, 0.00017 µM	1.04
HT1080, 0.00051 µM	1.035
HT1080, 0.00152 µM	1.04
HT1080, 0.00457 µM	1.05
HT1080, 0.01372 µM	1.07
HT1080, 0.04115 µM	1.04
HT1080, 0.1235 µM	1.04
HT1080, 0.3704 µM	1.059
HT1080, 1.111 µM	1.1
HT1080, 3.333 µM	1.09
HT1080, 10 µM	0.674
KHOS-NP, 0.00017 µM	1.059
KHOS-NP, 0.00051 µM	1.055
KHOS-NP, 0.00152 µM	1.05
KHOS-NP, 0.00457 µM	1.07
KHOS-NP, 0.01372 µM	1.055
KHOS-NP, 0.04115 µM	1.053
KHOS-NP, 0.1235 µM	1.06
KHOS-NP, 0.3704 µM	1.1
KHOS-NP, 1.111 µM	1.07
KHOS-NP, 3.333 µM	1.02
KHOS-NP, 10 µM	0.93
MES-SA, 0.00017 µM	0.933
MES-SA, 0.00051 µM	0.918
MES-SA, 0.00152 µM	0.904
MES-SA, 0.00457 µM	0.912
MES-SA, 0.01372 µM	0.923
MES-SA, 0.04115 µM	0.931
MES-SA, 0.1235 µM	0.945
MES-SA, 0.3704 µM	0.9335
MES-SA, 1.111 µM	0.915
MES-SA, 3.333 µM	0.683
MES-SA, 10 µM	0.0484
SK-LMS-1, 0.00017 µM	1.1
SK-LMS-1, 0.00051 µM	1.09
SK-LMS-1, 0.00152 µM	1.08
SK-LMS-1, 0.00457 µM	1.13
SK-LMS-1, 0.01372 µM	1.17
SK-LMS-1, 0.04115 µM	1.15
SK-LMS-1, 0.1235 µM	1.07
SK-LMS-1, 0.3704 µM	1.1
SK-LMS-1, 1.111 µM	1.11
SK-LMS-1, 3.333 µM	0.824
SK-LMS-1, 10 µM	0.361
SW684, 0.00017 µM	1.15
SW684, 0.00051 µM	1.13
SW684, 0.00152 µM	1.14
SW684, 0.00457 µM	1.13
SW684, 0.01372 µM	1.13
SW684, 0.04115 µM	1.17
SW684, 0.1235 µM	1.15
SW684, 0.3704 µM	1.14
SW684, 1.111 µM	1.19
SW684, 3.333 µM	1.15
SW684, 10 µM	0.707
SW872, 0.00017 µM	1.03
SW872, 0.00051 µM	1.03
SW872, 0.00152 µM	1.03
SW872, 0.00457 µM	1.02
SW872, 0.01372 µM	1.01
SW872, 0.04115 µM	1.05
SW872, 0.1235 µM	1.05
SW872, 0.3704 µM	1.05
SW872, 1.111 µM	1.04
SW872, 3.333 µM	0.895
SW872, 10 µM	0.0477
SW1353, 0.00017 µM	0.964
SW1353, 0.00051 µM	0.962
SW1353, 0.00152 µM	0.948
SW1353, 0.00457 µM	0.954
SW1353, 0.01372 µM	0.932
SW1353, 0.04115 µM	0.905
SW1353, 0.1235 µM	0.906
SW1353, 0.3704 µM	0.85
SW1353, 1.111 µM	0.863
SW1353, 3.333 µM	0.847
SW1353, 10 µM	0.807
SYO-1, 0.00017 µM	0.955
SYO-1, 0.00051 µM	0.93
SYO-1, 0.00152 µM	0.958
SYO-1, 0.00457 µM	0.959
SYO-1, 0.01372 µM	0.936
SYO-1, 0.04115 µM	0.949
SYO-1, 0.1235 µM	0.934
SYO-1, 0.3704 µM	0.944
SYO-1, 1.111 µM	0.912
SYO-1, 3.333 µM	0.637
SYO-1, 10 µM	0.165
VA-ES-BJ, 0.00017 µM	1.019
VA-ES-BJ, 0.00051 µM	1.01
VA-ES-BJ, 0.00152 µM	1.02
VA-ES-BJ, 0.00457 µM	1.03
VA-ES-BJ, 0.01372 µM	1.01
VA-ES-BJ, 0.04115 µM	0.992
VA-ES-BJ, 0.1235 µM	0.993
VA-ES-BJ, 0.3704 µM	0.979
VA-ES-BJ, 1.111 µM	0.985
VA-ES-BJ, 3.333 µM	0.927
VA-ES-BJ, 10 µM	0.451

— the supplement of paper PMC10883282
